Data from patent US12258335B1, “Matrix metalloproteinase (MMP) inhibitors and methods of use thereof” (Foresee Pharmaceuticals USA, Inc., priority 2018, dated 2025).

What was measured:
[1] = test system: bleomycin (BLM) induced unilateral lung fibrosis model in Sprague Dawley (SD) rats; assay: Bleomycin-induced SD rat unilateral lung fibrosis model for IPF; type: in vivo
Description: The purpose of this study was to evaluate the therapeutic effect of FC-4 on bleomycin (BLM) induced unilateral lung fibrosis model in Sprague Dawley (SD) rats. Male SD rats (n=50) were randomly divided into the following groups: Sham group (n=10), Model group (n=10), FC-4 administered at 10 mg/kg/day group (n=10), FC-4 administered at 30 mg/kg/day group (n=10), and FC-4 administered at 100 mg/kg/day group (n=10). All test drugs were delivered orally starting from day 8 of modeling for 14 days. Saline solution was taken for sham and model groups once a day, and FC-4 twice a day for drug treatment groups. Rats were anesthetized and the trachea was exposed. Saline was administrated via direct intra-trachea injection in the sham group, and the other groups' animals received a BLM injection at a dose of 3 mg/kg in volume of 1.0 ml/kg. All animals were processed using a non invasive lung function test with EMMS Whole Body Plethysmography system at pre-modeling, and at days 3, 7, 11, 14, 18 and 21 of modeling. One day after the last drug delivery, the left lung of all animals was perfused with 10% formalin, and processed for pathology analysis.
Animals: Species and quality level: SD rats, SPF grade. Gender and number: male, 93. Purchasing body weight range: 260-280 g. […]

[2] = biological target: T1, recombinant human MMP-12 catalytic domain (Homo sapiens, UniProt P39900); assay: MMP-12 inhibitory assay (fluorogenic MMP substrate cleavage); type: biochemical; details: readout at 30 minutes
T1 construct: recombinant human MMP-12 catalytic domain; purchased Enzo BM1L-SE138
Description: The inhibitory effect of compounds on the rate of cleaving fluorogenic MMP substrate (Enzo, BML-P128) by recombinant human MMP-12 catalytic domain (Enzo, BM1L-SE138) was carried out by methods known in the art. Briefly, to each well of a 96-well black opaque plate, all the reagents were sequentially added by pipetting, and the final reaction contained 4 nM of recombinant human MMP-12 catalytic domain, 4 μM of fluorogenic MMP substrate, and various concentrations (0.15 nM to 10,000 nM) of tested compound dilutions in HEPES buffer (pH 7.5) containing 10 mM of CaCl2), 0.01% Brij® 35 (polyoxyethylene (23) lauryl ether), and 0.1 mg/ml of BSA.
The enzyme and compounds were pre-incubated on a shaker to mix in wells. After an hour of mixing, fluorogenic substrate was added to each well. Reaction without enzyme was used as a blank control in the plate. The plate was then fed into a plate reader to measure fluorescence intensity at Excitation/Emission wavelengths of 340 nm/440 nm every 10 mins for at least 1 hour at 37° C. The IC50 of each compound in MMP-12 inhibition was determined by using a readout obtained at time point 30 minutes.

T1 sequence (P39900 106-263 limits assumed): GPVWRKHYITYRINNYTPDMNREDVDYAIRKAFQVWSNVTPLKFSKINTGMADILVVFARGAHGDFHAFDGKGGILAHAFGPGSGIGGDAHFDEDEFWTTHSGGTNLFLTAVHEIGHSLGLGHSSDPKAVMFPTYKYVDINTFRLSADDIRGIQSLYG

SMILES | Share of the Ashcraft score that was score 3 ([1]; all drug treatment groups) [%] | Physical and behavior abnormality ([1]; all tested rats during the experiment) | IC50 [2] [nM]
Cc1cc(COc2ccc(Sc3ccoc3C3NC(=O)NC3=O)cc2)ccn1 (stereo not drawn) [FC-4] | ~80 | no obviously physical and behavior abnormality change | 
Cc1cccc(COc2ccc(Sc3ccoc3C3NC(=O)NC3=O)cc2)[n+]1[O-] (stereo not drawn) [FC-5] |  |  | > 1000
Cc1cc(CCc2ccc(Sc3ccoc3C3NC(=O)NC3=O)cc2)ccn1 (stereo not drawn) [FC-30] |  |  | 10 to 100
Cc1cc(CNc2ccc(Sc3ccoc3C3NC(=O)NC3=O)cc2)ccn1 (stereo not drawn) [FC-31] |  |  | 10 to 100
Cc1cc(NCc2ccc(Sc3ccoc3C3NC(=O)NC3=O)cc2)ccn1 (stereo not drawn) [FC-34] |  |  | 100 to 1000
